Reference: patent publication US7629318B2, “Immunosuppressant compounds, methods and uses related thereto” (priority 2002, dated 2009)
Square brackets hold non-standard residues; d marks the D form. Peptide text beside a SMILES is read from it. * marks the point of attachment. Tic = O=C(O)[C@@H]1Cc2ccccc2CN1; Cha = N[C@@H](CC1CCCCC1)C(=O)O; NHPhenethyl = c1ccc(CCN*)cc1; Nle = CCCC[C@H](N)C(=O)O

How the values were obtained:
[1] = molecular target: DR4Dw14 (DRA1*0101 DRB1*0404) (Homo sapiens, UniProt P01903+P01911, A100R/A169T/F76Y/I96L/K127E/L162R/M171V/N62H/P40V/Q125Y/R42H/S133A/S149N/S66Y/V209L/W38E); assay: Competitive binding to MHC-II protein DR4Dw14; settings: 0404; read-out: Protein binding IC50 (nM) 0404
Description: (§1) Interaction mixtures lacking the peptidomimetic compound and both peptide mimetic compound and MHC-II were used as positive and negative controls, respectively. All interaction mixtures were set up in duplicates and were incubated for 16 hours at room temperature.
(§2) After washing with PBS, 60 μl of the MHC-II-compound interaction mixtures were transferred from the interaction plate to the appropriate wells of the capture plate and incubated for 2 h at 4° C. The wells were washed six times with 200 μl/well of cooled (4 to 8° C.) 1×DELFIA wash (Wallac-ADL-GmbH, Freiburg), incubated with 100 μl of cooled Europium-streptavidin conjugate (Wallac-ADL-GmbH, Freiburg; diluted 1/1000 with DELFIA assay buffer) for 30 minutes at 4° C., again washed six times with cooled 1×DELFIA wash and, finally, incubated with 200 μl cooled DELFIA enhancement solution (Wallac-ADL-GmbH, Freiburg) for one hour at room temperature before reading the time-resolved europium fluorescence at λex Eu^3+: 340 nm and λem Eu^3+: 613 (615) nm (Wallac Victor^2 1420 Multilabel Counter, Wallac-ADL-GmbH, Freiburg).

[2] = molecular target: Cathepsin B1 (EC 3.4.22.1 from bovine spleen) (Bos taurus, UniProt P07688); settings: Cathepsin B, 4 h
[3] = molecular target: DR4Dw4 (DRA1*0101 DRB1*0401) (Homo sapiens, UniProt P01903+P01911, A100K/A169T/F76Y/I96L/K127E/L162R/M171V/N62H/P40V/Q125Y/R42H/S133A/S149N/S66Y/V115G/V209L/W38E); assay: Competitive binding to MHC-II protein DR4Dw4
Description: as §1, §2

[4] = Stability of compounds in human blood plasma; assay type: in vitro ADME
Description: (§3) The stability of the peptidomimetic compounds was determined in rat (Charles River Laboratories, Sulzfeld), mouse (Charles River Laboratories, Sulzfeld) and human (Bayerisches Rotes Kreuz, München) blood plasma (E. R. Garrett and M. R. Gardner, J Pharmaceutical Sciences 71 (1982) 14-25).
(§4) Compound stock solutions were diluted into blood plasma to give a final compound concentration of 5 μM and the mixtures were incubated at 37° C. At 0, 6 and 24 hours 1 ml samples were drawn and the plasma proteins were precipitated by the addition of 3 ml acetonitrile p.a. and whirlmixing. The precipitate was pelleted by centrifugation at 2000 g for 5 minutes. The supernatant was evaporated off to dryness and the residue was reconstituted in 400 μl 50% acetonitrile, 0.1% TFA in water.
(§5) PBS controls were prepared for unstable compounds accordingly.

[5] = Stability of compounds in mouse blood plasma; assay type: in vitro ADME
Description: as §3, §4, §5

[6] = molecular target: DR1 (DRA1*0101 DRB1*0101) (Homo sapiens, UniProt P01903+P01911, A100R/D57E/F55L/F60I/F76Y/I96L/L162R/M171V/P40L/Q125E/R42F/V115G/Y59C); assay: Competitive binding to MHC-II protein DR1; settings: Protein binding IC50 (nM) 0101, 0101
Description: as §1, §2

[7] = test system: T cell activation from 0404(DR14) chimeric MHCII-mice; assay: In vivo inhibition of T cell activation by co-immunisation, DR14 mice immunised with OVA; parameters: species or system mouse; % Reduction of response to PPD(OVA): concentration or dose not given beside the values; settings: for % Reduction of response to OVA: DR14 mice co-immunised with OVA plus compound, mean % inhibition from the control over 3 concentrations of antigen (6.7, 20 and 60 ug); for % Reduction of response to PPD(OVA): specificity control: response to PPD in the same cell pool, OVA co-immunised mice
Description: Mouse strains DR4 and DR14 carry chimeric MHC-II transgenes that encode the N-terminal domains of the respective DR molecules (forming the peptide binding site) and the remaining (2nd extracellular domains, transmembrane and intracytoplasmic domains) of the murine class II molecule I Ed. These strains are deficient of other murine class II, and thus, all helper T cell responses are triggered by peptides presented in the respective human MHC-II binding site. As an initial in vivo test of subject inhibitors designed to bind to DR, DR-transgenic mice were co-immunized with a pre-defined dose of protein antigen and different amounts of the compound antagonist to be tested. In this set-up, both antigen and compound were emulsified together in complete Freund's adjuvant (CFA), and thus, a direct competition between the two components for presentation by DR was tested. Readout of the assay is ex vivo antigen-specific activation of T cells from regional lymph nodes explanted 9 days after co-immunization. In a typical experiment, antigen dose-response was investigated, and the curves from mice immunized with antigen were compared to those from mice co-immunized with antigen+compound. The dose response curves were generated using lymph node cells pooled at equal numbers from 2-3 mice per experimental group. The experimental system also permits assessment of inherent antigenicity of the compound antagonist. This was done by setting up a dose-response study from the same cell pool using different concentrations of the compund under investigation instead of the antigen. As a specificity control, the response to Purified Protein Derivative (PPD), the major protein component of CFA, was tested in the same cell pool.
All Gpg conataining compounds have significant immunosupressive properties in one or both of the in-vivo models. Gpg-containing compounds also show improved activity or improved specificity over the Arg-containing equivilent. Further, compounds according to Formula I show activity in this assay.
Compounds of the invention were injected as an Emulsion prepared using CFA (Bacto Adjuvant Complete H37 Ra, Difco, Order-No. 3113-60); proteins 10 mg/ml in PBS, inhibitors 5 μM in 10% DMSO. CFA, PBS, antigen, and inhibitor were placed in the barrel of a 5-ml syringe (total volume not more than 1 mL). The mixture was sonicated at an amplitude less than 40% (30-35%) for two separated 15 s periods. The emulsion should seem to be hard and not liquid at this point. A drop of emulsion placed on the surface of water should not melt. The resulting emulsion was pushed through the needle into a 1 ml syringe with a needle (Gr.18, 26G×1″), and air bubbles were removed. Mice were co-immunized with 50 μg protein and 210 nM compound antagonist in final 100 μl emulsion into the tail base. Antigen+Compound and CFA are mixed 1:1 vol/vol. The best results are obtained using DR 4 mice immunised with HEL and DR 14 mice immunized with OVA.
Mice were injected at the tail-base as follows: Holding the tail of a mouse with thumb and middle finger, the index finger was placed under the base of the mouse's tail. The needle of the syringe was inserted about 1.5 cm from the tail base (hairy end) under the skin and pushed about 1 cm into the tail. 100 μl emulsion was injected into the mouse. After 9 days, mice were killed and lymph nodes removed.
The inhibitory effect of the candidate compounds on T-cell activation was tested using T-cells and antigen-presenting cells isolated from the lymph nodes of chimeric DR4-IE transgenic mice (Taconic, USA) previously co-immunized with hen egg lysozyme plus compound, or DR14-IE transgenic mice co-immunized with ovalbumin plus compound according to standard procedures (Adorini et al., 1988, Mueller et al., 1990; Current Protocols in Immunology, Vol. 2, 7.21; Ito et al., 1996). […]

[8] = Stability of compounds in rat blood plasma; assay type: in vitro ADME
Description: as §3, §4, §5

[9] = test system: T-cell proliferation, lymph node cells of chimeric 0401-IE transgenic mice; settings: DR4-LN
Description: The compounds were tested as follows to inhibit the proliferative T cell response of antigen-primed lymph node cells from mice carrying a chimeric mouse-human class II transgene with an RA-associated peptide binding site, and lack murine class II molecules (Muller et al., 1990; Woods et al., 1994; Current Protocols in Immunology, Vol. 2, 7.21; Ito et al., 1996). Here, the immunization takes place in vivo, but the inhibition and readout are ex vivo. […] These mice lack murine MHC class II, and thus, all Th responses are channelled through a single human RA-associated MHC class II molecule (Ito et al. 1996). These transgenic mice represent a model for testing human class II antagonists.
1.5×10^5 cells are incubated in 0.2 ml wells of 96-well tissue culture plates in the presence of ovalbumin (30 μg per well—half-maximal stimulatory concentration) and a dilution series of the compound under test (from around 0.1 to 200 uM) in serum free HL-1 medium containing 2 mM L-glutamine and 0.1 g/l Kanamycin for three days. Antigen specific proliferation is measured by 3H-methyl-thymidine (1 μCi/well) incorporation during the last 16 h of culture (Falcioni et al., 1999). Cells are harvested, and 3H incorporation measured using a scintillation counter (TopCount, Wallac Finland).

Row | Compound | IC50 [1] [nM] | Stability (Arbitrary units) Cath B 4 h [2] [Arbitrary units] | IC50 [3] [µM] | Stability (Arbitrary units) Human 6 h [4] [Arbitrary units] | Stability (Arbitrary units) Human 24 h [4] [Arbitrary units] | Stability (Arbitrary units) Mouse 6 h [5] [Arbitrary units] | Stability (Arbitrary units) Mouse 24 h [5] [Arbitrary units] | IC50 [6] [nM] | % Reduction of response to OVA [7] [%] | % Reduction of response to PPD(OVA) [7] [%] | Stability (Arbitrary units) Rat 6 h [8] [Arbitrary units] | Immunsupressive assays DR4-LN (Max) % Inhibition ([9]; maximal inhibition) [%] | IC50 ([9]; read-out: Immunsupressive assays DR4-LN (IC50)) [µM]
1 | CCCC[C@H](NC(=O)[C@@H]1Cc2ccccc2CN1C(=O)[C@H](CCCNC(=N)N)NC(=O)[C@H](CC1CCCCC1)NC(C)=O)C(=O)NCCc1ccccc1 [Compound P82, Ac-Cha-Arg-Tic-Nle-N(H)CH2CH2Ph] (Ac-[Cha]R[Tic][Nle]-NHPhenethyl) | 14000 | 105 | 18 | 94 | 72 | 79 | 31 | 3100 | 25 | 5 | 65 | 100 | 27
2 | Ac-Hfe-Gpg-Tic-Nle-βPhPro-[S(oxaz)L]-NMe2 [Compound P57] | – | – | – | – | – | – | – | – | 52.6 | 52.4 | – | – | –
